These results are taken from patent US20180334436A1 (VIIV HEALTHCARE UK LIMITED, priority 2015, published 2018).

This assay concerns HIV. Description: MT4 assay (anti-HIV activity). Format: cell-based. As to conditions: Human immunodeficiency virus 1, 96 h, antiviral HIV activity in HTLV-1 transformed cell line MT-4; luciferase read 96 hours later; 10 point dose response. The method in brief: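 MT-4 cells infected with HIV, with inhibition readout by CellTiter-Glo luminescence at 96 h relative to no-compound control. Cytotoxicity measured in parallel under the same conditions. IC50 from a 10-point, 3-4-fold dilution series spanning >1000-fold, fitted with a four-parameter logistic equation.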
Broadly, the IC50 is the concentration that inhibits the measured activity by half. Regarding `Cc1c(-c2c(C)c3c(c(C)c2[C@H](OC(C)(C)C)C(=O)O)CCN(S(=O)(=O)C2CCCCC2)C3)cc(F)c2c1CCCO2` [Example 80, (S)-2-(tert-Butoxy)-2-((R)-2-(cyclohexylsulfonyl)-7-(8-fluoro-5-methylchroman-6-yl)-5,8-dimethyl-1,2,3,4-tetrahydroisoquinolin-6-yl)acetic Acid], the half-maximal inhibitory concentration (IC50) is 13 nM.

Regarding `Cc1c(-c2c(C)c3c(c(C)c2[C@H](OC(C)(C)C)C(=O)O)CCN(C2CCC(C)(C)CC2)C3)cc(F)c2c1CCCO2` [Example 81, (S)-2-(tert-Butoxy)-2-((R)-2-(4,4-dimethylcyclohexyl)-7-(8-fluoro-5-methylchroman-6-yl)-5,8-dimethyl-1,2,3,4-tetrahydroisoquinolin-6-yl)acetic Acid], the IC50 was 4 nM.

Regarding `COc1c(F)cccc1C(=O)N1CCc2c(C)c([C@H](OC(C)(C)C)C(=O)O)c(-c3cc(F)c4c(c3C)CCCO4)c(C)c2C1` [Example 82, (S)-2-(tert-Butoxy)-2-((R)-2-(3-fluoro-2-methoxybenzoyl)-7-(8-fluoro-5-methylchroman-6-yl)-5,8-dimethyl-1,2,3,4-tetrahydroisoquinolin-6-yl)acetic Acid], the IC50 stood at 20 nM.

In the case of `Cc1c(-c2c(C)c3c(c(C)c2[C@H](OC(C)(C)C)C(=O)O)CCN(CC2CCCCC2)C3)cc(F)c2c1CCCO2` [Example 85, (S)-2-(tert-Butoxy)-2-((R)-2-(cyclohexylmethyl)-7-(8-fluoro-5-methylchroman-6-yl)-5,8-dimethyl-1,2,3,4-tetrahydroisoquinolin-6-yl)acetic Acid], the half-inhibitory concentration (IC50) came out at 14 nM.

As to `Cc1c2c(c(C)c([C@H](OC(C)(C)C)C(=O)O)c1-c1ccc(Cl)cc1)CCN(S(=O)(=O)C1CCCCC1)C2` [Example 86, (S)-2-(tert-butoxy)-2-(7-(4-chlorophenyl)-2-(cyclohexylsulfonyl)-5,8-dimethyl-1,2,3,4-tetrahydroisoquinolin-6-yl)acetic Acid], the 50% inhibitory concentration (IC50) is 38 nM.

For `Cc1c2c(c(C)c([C@H](OC(C)(C)C)C(=O)O)c1-c1ccc(Cl)cc1)CCN(C1CCCCC1)C2` [Example 87, (S)-2-(tert-butoxy)-2-(7-(4-chlorophenyl)-2-cyclohexyl-5,8-dimethyl-1,2,3,4-tetrahydroisoquinolin-6-yl)acetic Acid], the IC50 stood at 15 nM.

On to `Cc1c(-c2c(C)c3c(c(C)c2[C@H](OC(C)(C)C)C(=O)O)CCN(Cc2ccccc2)C3)cc(F)c2c1CCCO2` [Example 90, (S)-2-((R)-2-Benzyl-7-(8-fluoro-5-methylchroman-6-yl)-5,8-dimethyl-1,2,3,4-tetrahydroisoquinolin-6-yl)-2-(tert-butoxy)acetic Acid], for which the concentration for half-maximal inhibition (IC50) was found to be 67 nM.

For the compound `Cc1c(-c2c(C)c3c(c(C)c2[C@H](OC(C)(C)C)C(=O)O)CCN(C(=O)c2ccccc2)C3)cc(F)c2c1CCCO2` [Example 91, (S)-2-((R)-2-Benzoyl-7-(8-fluoro-5-methylchroman-6-yl)-5,8-dimethyl-1,2,3,4-tetrahydroisoquinolin-6-yl)-2-(tert-butoxy)acetic Acid], the IC50 turned out to be 48 nM.

As for `COc1ccc(C(=O)N2CCc3c(C)c([C@H](OC(C)(C)C)C(=O)O)c(-c4cc(F)c5c(c4C)CCCO5)c(C)c3C2)cc1F` [Example 92, (S)-2-(tert-Butoxy)-2-((R)-2-(3-fluoro-4-methoxybenzoyl)-7-(8-fluoro-5-methylchroman-6-yl)-5,8-dimethyl-1,2,3,4-tetrahydroisoquinolin-6-yl)acetic Acid], the IC50 was found to be 153 nM.

As to `Cc1c(-c2c(C)c3c(c(C)c2[C@H](OC(C)(C)C)C(=O)O)CCN(C(=O)c2cccc(OC(C)C)c2)C3)cc(F)c2c1CCCO2` [Example 93, (S)-2-(tert-Butoxy)-2-((R)-7-(8-fluoro-5-methylchroman-6-yl)-2-(3-isopropoxybenzoyl)-5,8-dimethyl-1,2,3,4-tetrahydroisoquinolin-6-yl)acetic Acid], the IC50 is 178 nM.

Regarding `Cc1c(-c2c(C)c3c(c(C)c2[C@H](OC(C)(C)C)C(=O)O)CCN(C(=O)c2ccc(C(F)(F)F)cc2)C3)cc(F)c2c1CCCO2` [Example 94, (S)-2-(tert-Butoxy)-2-((R)-7-(8-fluoro-5-methylchroman-6-yl)-5,8-dimethyl-2-(4-(trifluoromethyl)benzoyl)-1,2,3,4-tetrahydroisoquinolin-6-yl)acetic Acid], the IC50 stood at 384 nM.

For `Cc1ccc(C(=O)N2CCc3c(C)c([C@H](OC(C)(C)C)C(=O)O)c(-c4cc(F)c5c(c4C)CCCO5)c(C)c3C2)cn1` [Example 96, (S)-2-(tert-Butoxy)-2-((R)-7-(8-fluoro-5-methylchroman-6-yl)-5,8-dimethyl-2-(6-methylnicotinoyl)-1,2,3,4-tetrahydroisoquinolin-6-yl)acetic Acid], the IC50 was found to be 109 nM.

Regarding `Cc1ccc(-c2c(C)c3c(c(C)c2C(OC(C)(C)C)C(=O)O)CC(=O)N(Cc2ccccc2)C3)cc1` (centres unmarked) [Example 98, 2-(2-Benzyl-5,8-dimethyl-3-oxo-7-(p-tolyl)-1,2,3,4-tetrahydroisoquinolin-6-yl)-2-(tert-butoxy)acetic Acid], the IC50 was 14 nM.

For the compound `Cc1ccc(-c2c(C)c3c(c(C)c2C(OC(C)(C)C)C(=O)O)CN(Cc2ccccc2)C(=O)C3)cc1` (centres unmarked) [Example 99, 2-(2-Benzyl-5,8-dimethyl-3-oxo-6-(p-tolyl)-1,2,3,4-tetrahydroisoquinolin-7-yl)-2-(tert-butoxy)acetic Acid], the IC50 was found to be 3300 nM.

Regarding `Cc1ccc(-c2c(C)c3c(c(C)c2[C@H](OC(C)(C)C)C(=O)O)CN(Cc2ccccc2)C(=O)C3)cc1` [Example 100, (S)-2-(2-Benzyl-5,8-dimethyl-3-oxo-6-(p-tolyl)-1,2,3,4-tetrahydroisoquinolin-7-yl)-2-(tert-butoxy)acetic Acid], the IC50 worked out at 1360 nM.

As to `Cc1ccc(-c2c(C)c3c(c(C)c2[C@H](OC(C)(C)C)C(=O)O)CC(=O)N(Cc2ccccc2)C3)cc1` [Example 101, (S)-2-(2-Benzyl-5,8-dimethyl-3-oxo-7-(p-tolyl)-1,2,3,4-tetrahydroisoquinolin-6-yl)-2-(tert-butoxy)acetic Acid], the IC50 came out at 4 nM.

As to `Cc1c(-c2c(C)c3c(c(C)c2[C@H](OC(C)(C)C)C(=O)O)CC(=O)N(C2CCCC(C)(C)C2)C3)cc(F)c2c1CCCO2` (stereo partly drawn) [Example 111, (2S)-2-(tert-butoxy)-2-((7R)-2-(3,3-dimethylcyclohexyl)-7-(8-fluoro-5-methylchroman-6-yl)-5,8-dimethyl-3-oxo-1,2,3,4-tetrahydroisoquinolin-6-yl)acetic Acid], the concentration for half-maximal inhibition (IC50) stood at 3 nM.

As to `Cc1c(-c2c(C)c3c(c(C)c2[C@H](OC(C)(C)C)C(=O)O)CC(=O)N(C2CCCCC2(C)C)C3)cc(F)c2c1CCCO2` (stereo partly drawn) [Example 116, (2S)-2-(tert-butoxy)-2-((7R)-2-(2,2-dimethylcyclohexyl)-7-(8-fluoro-5-methylchroman-6-yl)-5,8-dimethyl-3-oxo-1,2,3,4-tetrahydroisoquinolin-6-yl)acetic Acid], the concentration for half-maximal inhibition (IC50) is 3 nM.

`Cc1c(-c2c(C)c3c(c(C)c2[C@H](OC(C)(C)C)C(=O)O)CC(=O)N(C2CCCC(F)(F)C2)C3)cc(F)c2c1CCCO2` (stereo partly drawn) [Example 117, (2S)-2-(tert-butoxy)-2-((7R)-2-(3,3-difluorocyclohexyl)-7-(8-fluoro-5-methylchroman-6-yl)-5,8-dimethyl-3-oxo-1,2,3,4-tetrahydroisoquinolin-6-yl)acetic Acid]: the half-inhibitory concentration (IC50) amounted to 2 nM.

Turning to `Cc1ccc(-c2c(C)c3c(c(C)c2C(OC(C)(C)C)C(=O)O)C(=O)N(Cc2ccccc2)CC3)cc1` (centres unmarked) [Example 121, 2-(2-benzyl-5,8-dimethyl-1-oxo-6-(p-tolyl)-1,2,3,4-tetrahydroisoquinolin-7-yl)-2-(tert-butoxy)acetic Acid], the IC50 was 474 nM.
